Laboratory results: patent publication US20230069804A1, “METHODS AND COMPOSITIONS FOR MODULATING SPLICING” (SkyHawk Therapeutics, Inc., priority 2019, published 2023)
Like-named read-outs stand apart in the source and are kept apart here.

Experiments:
SMN protein = SMN protein assay (MSD) in SMA patient fibroblasts GM03813; assay type: cell-based; conditions: SMA patient fibroblasts GM03813, 48 hours
Description: Compounds were tested on spinal muscular atrophy (SMA) patient fibroblasts (GM03813, Coriell) at doses ranging from 2.5 μM to 0.6 nM. 7000 cells/well were seeded in 96-well plates. Compounds were incubated for 48 hours and the cells were lysed with 100 μL of lysis buffer. 20 μL of lysate was used for SMN protein measurement by Mesoscale Discovery (MSD) assay developed by PharmOptima (Michigan). A standard curve prepared with SMN protein ranging from 1 μg/ml to 19.5 pg/ml was used in each MSD plate to calculate the absolute SMN protein amount in each sample.

MDR1 = experiment: MDCK-MDR1 permeability assay (BBB penetration potential); assay type: in vitro ADME; conditions: dog; for Papp A→B at 120 min, 5 μM / Papp B→A at 120 min, 5 μM: MDCK-MDR1, pH 7.4
Description: (§1) Each determination is performed in duplicate. […] Analytical conditions are outlined below.
(§2) Papp=(dCr/dt)×Vr/(A×CA) (1)

[1] = test system: MDR1-MDCK cell monolayers; experiment: as above; assay type: in vitro ADME; conditions: 5 μM, 120 minutes; for MDCK-MDR1: % Recov A-B / MDCK-MDR1: % Recov B-A: pH 7.4
Description: as §1, §2

SMN2 = experiment: Quantitative splicing assay (SMN) in SMA patient fibroblasts GM03813; assay type: cell-based; conditions: Homo sapiens, Fibroblast, SMA patient fibroblasts GM03813, 24 h; for IC50: read-out: SMN2 Potency - Splicing: Splicing D7 IC50 (average); for EC50: read-out: SMN2 Potency - Splicing: Splicing FL EC50 (average)
Description: Spinal muscular atrophy (SMA) patient fibroblasts (GM03813, Coriell) are plated in 96-well plates at 50,000 cells/well. Immediately after plating, cells are dosed with compounds for 24 h at concentrations ranging from 2.5 μM to 0.6 nM (0.1% DMSO). Treated cells are lysed and cDNA synthesized using the Fast Advanced Cells-to-Ct kit (Thermofisher A35378) according to the manufacturer's instructions. 2 μL of each cDNA are used in qPCR reactions. The qPCR reactions are prepared in 384-well plates in 10 μL volume, using TaqMan™ Fast Advanced Master Mix (ThermoFisher; 4444965) with primers and probes shown in the table below. Reactions are run in a Quant Studio 6 qPCR instrument with default settings.
It is to be understood that the absolute stereochemistry for compounds of Table 3 is not determined.

[2] = Fibroblast, 48 h, read-out: SMN2 Potency - Protein: Protein FL EC50 (average)
[3] = MDCK-MDR1, pH 7.4, Papp (B-to-A)/Papp (A-to-B), read-out: MDCK-MDR1: Efflux

Compound	EC50 (SMN protein; Fibroblast, 48 h, separated enantiomers, told apart by chiral retention time, read-out: SMN EC50) [nM]	EC50 (SMN protein; separated enantiomers, told apart by chiral retention time, read-out: SMN EC50) [nM]	efflux ratio at 120 min, 5 μM (MDR1; MDCK-MDR1, pH 7.4, Papp (B-to-A)/Papp (A-to-B), 5 μM, 120 minutes, separated enantiomers, told apart by chiral retention time, read-out: MDCK MDRP1 Efflux Ratio)	MDCK MDRP1 Efflux Ratio ([1]; Papp (B-to-A)/Papp (A-to-B), separated enantiomers, told apart by chiral retention time)	IC50 (SMN2) [nM]	EC50 (SMN2) [nM]	EC50 (SMN protein; [2]) [nM]	efflux ratio at 120 min, 5 μM (MDR1; [3])	Papp A→B at 120 min, 5 μM (MDR1; 5 μM, 120 minutes) [×10⁻⁶ cm/s]	Papp B→A at 120 min, 5 μM (MDR1; 5 μM, 120 minutes) [×10⁻⁶ cm/s]	MDCK-MDR1: % Recov A-B [1] [%]	MDCK-MDR1: % Recov B-A [1] [%]
CN(c1nnc(-c2ccc(-c3ccn(C)c(=O)c3)cc2O)s1)[C@@H]1C[C@H]2CC[C@H](N2)[C@@H]1F (racemic) [4A/4B, 4-[4-(5-{[(1S,2S,3R)-2-fluoro-8-azabicyclo[3.2.1]octan-3-yl](methyl)amino}-1,3,4-thiadiazol-2-yl)-3-hydroxyphenyl]-1-methyl-1,2-dihydropyridin-2-one and 4-[4-(5-{[(2R,3S,5S)-2-fluoro-8-azabicyclo[3.2.1]octan-3-yl](methyl)amino}-1,3,4-thiadiazol-2-yl)-3-hydroxyphenyl]-1-methyl-1,2-dihydropyridin-2-one]	51 to 100	101 to 500	54	40	–	–	–	–	–	–	–	–
COc1cc(-c2ccc(-c3nnc(N(C)[C@@H]4C[C@H]5CC[C@H](N5)[C@@H]4F)s3)c(O)c2)ncn1 (single isomer, unassigned) [Compound E-5A]	–	–	–	–	51 to 100	51 to 100	16 to 50	2	7.8	19.1	41	61
CN(c1nnc(-c2cc(F)c(-c3cn[nH]c3)cc2O)s1)[C@H]1C[C@@H]2CC[C@@H](N2)[C@H]1F (single isomer, unassigned) [Compound E-6B]	–	–	–	–	0.01 to 15	16 to 50	0.01 to 15	12	3.16	39.3	62	76
CN(c1nnc(-c2ccc(-c3cn[nH]c3)cc2O)s1)[C@H]1C[C@@H]2CC[C@@H](N2)[C@H]1F (single isomer, unassigned) [Compound E-7A]	–	–	–	–	–	–	–	12	5.22	60.6	99	102
CN(c1nnc(-c2ccc(-c3cn[nH]c3)cc2O)s1)[C@@H]1C[C@H]2CC[C@H](N2)[C@@H]1F (single isomer, unassigned) [Compound E-7B]	–	–	–	–	0.01 to 15	0.01 to 15	0.01 to 15	12	4.76	56	79	91
CN(c1nnc(-c2ccc(-c3cc(=O)n(C)cn3)cc2O)s1)[C@@H]1C[C@H]2CC[C@H](N2)[C@@H]1F (single isomer, unassigned) [Compound E-8A]	–	–	–	–	–	–	–	21	1.31	27.8	116	114
CN(c1nnc(-c2ccc(-c3cc(=O)n(C)cn3)cc2O)s1)[C@H]1C[C@@H]2CC[C@@H](N2)[C@H]1F (single isomer, unassigned) [Compound E-8B]	–	–	–	–	–	–	–	31	0.66	20.6	67	42
CN(c1nnc(-c2cc(F)c(-c3cnn(C)c3)cc2O)s1)[C@H]1C[C@@H]2CC[C@@H](N2)[C@H]1F (single isomer, unassigned) [Compound E-9A]	–	–	–	–	51 to 100	101 to 500	51 to 100	6	5.87	36.3	51	68
CN(c1nnc(-c2ccc(-c3cnn(CF)c3)cc2O)s1)[C@H]1C[C@@H]2CC[C@@H](N2)[C@H]1F (single isomer, unassigned) [Compound E-10A]	–	–	–	–	–	–	–	6	8.6	50.8	72	80
COc1cc(-c2ccc(-c3nnc(N(C)[C@@H]4C[C@H]5CC[C@H](N5)[C@@H]4F)s3)c(O)c2)ccn1 (single isomer, unassigned) [Compound E-11A]	–	–	–	–	–	–	–	2	4.19	9.76	20	56
COc1cc(-c2ccc(-c3nnc(N(C)[C@H]4C[C@@H]5CC[C@@H](N5)[C@H]4F)s3)c(O)c2)ccn1 (single isomer, unassigned) [Compound E-11B]	–	–	–	–	–	–	–	2	3.71	6.07	17	60
CN(c1nnc(-c2ccc(-c3ccn(CF)c(=O)c3)cc2O)s1)[C@@H]1C[C@H]2CC[C@H](N2)[C@@H]1F (single isomer, unassigned) [Compound E-15A]	–	–	–	–	–	–	–	40	1.39	55.6	82	96
CN(c1nnc(-c2ccc(-c3cn[nH]c3)cc2O)s1)[C@@H]1C[C@H]2CC[C@@H]([C@@H]1F)N2C (single isomer, unassigned) [Compound E-23B]	–	–	–	–	–	–	–	7	5.69	39	83	89
CN(c1nnc(-c2cc(F)c(-c3cn[nH]c3)cc2O)s1)[C@H]1C[C@@H]2CC[C@H]([C@H]1F)N2C (single isomer, unassigned) [Compound E-24A]	–	–	–	–	–	–	–	6	5.07	30.8	57	74
CN(c1nnc(-c2cc(F)c(-c3cn[nH]c3)cc2O)s1)[C@@H]1C[C@H]2CC[C@@H]([C@@H]1F)N2C (single isomer, unassigned) [Compound E-24B]	–	–	–	–	–	–	–	7	4.16	29.4	59	82
CN(c1nnc(-c2ccc(-c3cnn(C)c3)cc2O)s1)[C@H]1C[C@@H]2CC[C@H]([C@H]1F)N2C (single isomer, unassigned) [Compound E-25A]	–	–	–	–	–	–	–	4	8.7	32	70	82
CN(c1nnc(-c2ccc(-c3cnn(C)c3)cc2O)s1)[C@@H]1C[C@H]2CC[C@@H]([C@@H]1F)N2C (single isomer, unassigned) [Compound E-25B]	–	–	–	–	–	–	–	3	7.16	22.7	67	83
